Structures can show the parent of a compound that is named as a salt.
Experiments:
Assay in all cases: Antiviral activity in deCIPhR cellular system (replicative phenotyping, β-galactosidase indicator cell line)
Type in all cases: cell-based
Details in all cases: Human immunodeficiency virus 1
HIV-1 mutant GQ (MDR) = tested on: HIV-1 mutant GQ (MDR)
Text: (§1) Fully infectious virus HIV-1 was produced from cloned proviral DNA reference coding either for wild-type HIV-1 or from drug-resistant virus following transfection of proviral DNA into recipient mammalian cells. Subsequent to viral protein expression and particle formation, culture supernatant was harvested and used to infect an indicator cell line. This latter cell line expresses all necessary receptors and co-receptors for HIV infection as well as the bacterial gene LacZ coding for β-galactosidase under the control of the HIV-1 long terminal repeat. In this system, amount of β-galactosidase is directly proportional to the extent of viral replication. Activity of β-galactosidase is assayed in presence of a colorless substrate which upon enzymatic conversion yields a yellow product absorbing at 405 nm. Next, variation in colorimetric readout in presence of test compounds was translated in percent viral inhibition following normalization according to absorbance values of positive (presence of anti-HIV drug) and negative (untreated) control wells included in each 96 well-plate. For determining effective concentration 50 % (EC50), test compounds were assayed across a range of concentrations. Percent inhibition data in function of drug concentration were processed by a statistical curve fitting software yielding a modeled curve from which EC50 was extrapolated.

HIV-1 mutant K103N = tested on: HIV-1 mutant K103N
Text: as §1

HIV-1 mutant K65R = tested on: HIV-1 mutant K65R
Text: as §1

HIV-1 mutant M184V = tested on: HIV-1 mutant M184V
Text: as §1

HIV-1 mutant M4 = tested on: HIV-1 mutant M4
Text: as §1

HIV-1 wild type pNL4-3 = tested on: HIV-1 wild type pNL4-3
Text: as §1

SMILES | EC50 (HIV-1 mutant GQ (MDR)) [nM] | EC90 (HIV-1 mutant GQ (MDR)) [nM] | EC50 (HIV-1 mutant K103N) [nM] | EC90 (HIV-1 mutant K103N) [nM] | EC50 (HIV-1 mutant K65R) [nM] | EC90 (HIV-1 mutant K65R) [nM] | EC50 (HIV-1 mutant M184V) [nM] | EC90 (HIV-1 mutant M184V) [nM] | EC50 (HIV-1 mutant M4) [nM] | EC90 (HIV-1 mutant M4) [nM] | EC50 (HIV-1 wild type pNL4-3) [nM] | EC90 (HIV-1 wild type pNL4-3) [nM]
Cc1cn([C@H]2C[C@H](F)[C@@H](COP(=O)(O)O)O2)c(=S)[nH]c1=O [Example 2-SFLTMP, 1-(2-deoxy-3-fluoro-β-D-ribofuranosyl)-2-thiothymine 5'-monophosphate disodium salt] | 2850 | 4530 | 114 | 978 | 504 | 4340 | 144 | 3260 | 392 | 3680 | 224 | 2580
Cc1cn([C@H]2C[C@H](F)[C@@H](COP(=O)(O)O)O2)c(=O)[nH]c1=S [Example 4-SFLTMP, 1-(2-deoxy-3-fiuoro-β-D-ribofuranosyl)-4-thiothymine 5'-monophosphate disodium salt] | 48 | 1800 | 11 | 50 | 96 | 338 | 43 | 425 | 31 | 381 | 24 | 166
Cc1cn([C@H]2C[C@H](F)[C@@H](CO)O2)c(=O)[nH]c1=O [FLT, 2',3'-Dideoxy-3'-fluorothymidine] | 131 | 1300 | 18 | 71 | 32 | 96 | 27 | 119 | 16 | 118 | 21 | 210

Source: patent publication EP2402357B1, “Analogs of 2',3'-dideoxy-3'-fluorothymidine 5'-monophosphate (FLTMP) for use in the treatment of infections caused by human HIV-1 strains” (priority 2010, dated 2012)
